Results as given in ChEMBL document CHEMBL5042519, “Design and synthesis of marine sesterterpene analogues as novel estrogen receptor α degraders for breast cancer treatment” (Eur J Med Chem, 2022).
Where a name gives a salt, the structure may show the parent alone. Active and inactive are the calls of the source. The calls are words filed in the database; no cut-off is given here.

Tests used:
MCF7 [1] = assay: Antiproliferative activity against human MCF7 cells assessed as reduction in cell viability after 48 hrs by MTT assay; assay type: functional, cell-based; conditions: MCF7, 48 h
MCF7 [2] = assay: Antiproliferative activity against human MCF7/ADR cells assessed as reduction in cell viability after 48 hrs by MTT assay; assay type: functional, cell-based; conditions: MCF7, 48 h
[3] = Resistance index, ratio of IC50 for antiproliferative activity against human MCF7/ADR cells to IC50 for antiproliferative activity against human MCF7 cells; assay type: functional
MDA-MB-231 = assay: Antiproliferative activity against human MDA-MB-231 cells assessed as reduction in cell viability after 48 hrs by MTT assay; conditions: MDA-MB-231, 48 h
[4] = biological target: T1, Estrogen receptor (Homo sapiens) (UniProt P03372); assay: Induction of ERalpha degradation in human MCF7 cells assessed as decrease in ERalpha protein expression at 1 uM incubated for 24 hrs by Western blot analysis; assay type: cell-based
T1 sequence (whole entry): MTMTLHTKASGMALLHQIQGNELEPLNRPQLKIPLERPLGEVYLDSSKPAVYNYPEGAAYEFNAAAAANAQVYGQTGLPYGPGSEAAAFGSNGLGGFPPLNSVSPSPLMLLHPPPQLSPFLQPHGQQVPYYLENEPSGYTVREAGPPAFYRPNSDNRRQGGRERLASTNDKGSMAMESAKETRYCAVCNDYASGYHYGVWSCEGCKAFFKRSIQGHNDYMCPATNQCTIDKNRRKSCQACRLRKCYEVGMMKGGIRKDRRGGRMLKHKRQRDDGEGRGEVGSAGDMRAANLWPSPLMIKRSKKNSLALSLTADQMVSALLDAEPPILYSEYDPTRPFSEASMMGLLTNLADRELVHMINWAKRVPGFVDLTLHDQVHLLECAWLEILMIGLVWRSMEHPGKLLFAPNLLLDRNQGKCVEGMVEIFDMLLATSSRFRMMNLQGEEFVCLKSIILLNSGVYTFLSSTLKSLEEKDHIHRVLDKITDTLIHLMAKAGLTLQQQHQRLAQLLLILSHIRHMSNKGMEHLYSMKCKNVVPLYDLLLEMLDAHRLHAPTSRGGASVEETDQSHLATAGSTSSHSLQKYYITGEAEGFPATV

[5] = Antiproliferative activity against human MCF-10A cells assessed as reduction in cell viability after 48 hrs by MTT assay; assay type: toxicity, cell-based
[6] = Selectivity index, ratio of IC50 for antiproliferative activity against human MCF-10A cells to IC50 for antiproliferative activity against human MDA-MB-231 cells by MTT assay; assay type: toxicity, cell-based; conditions: MCF-10A cells versus MDA-MB-231 cells, read-out: Ratio IC50

SMILES	IC50 (MCF7 [1]) [nM]	IC50 (MCF7 [2]) [nM]	IC50 (MDA-MB-231) [nM]	Activity [4]	Ratio IC50 [3]	IC50 at 48 h [5] [nM]	selectivity ratio [6]
COCCOCCOCCOC(=O)/C=C/[C@H](C)[C@H]1CC[C@]2(C)C[C@@H]3C(C)=CC(=O)[C@H]3/C(C=O)=C\C[C@@H]12	3790	2260	3160		0.6		
CCCCCOC(=O)/C=C\C=C/[C@H](C)[C@H]1CC[C@]2(C)C[C@@H]3C(C)=CC(=O)[C@H]3/C(C=O)=C\C[C@@H]12	1840	1370	1660		0.74		
CCCCCCOC(=O)/C=C/[C@H](C)[C@H]1CC[C@]2(C)C[C@@H]3C(C)=CC(=O)[C@H]3/C(C=O)=C\C[C@@H]12	1840	1630	860		0.89		
CC1=CC(=O)[C@H]2/C(C=O)=C\C[C@H]3[C@@H]([C@@H](C)/C=C/C(=O)OCCOCCOCCOC(=O)CC45CC6CC(CC(C6)C4)C5)CC[C@]3(C)C[C@H]12	1040	1150	730	Active	1.11		
COc1cccc2c1C(=O)c1c(O)c3c(c(O)c1C2=O)C[C@@](O)(C(=O)CO)C[C@@H]3O[C@H]1C[C@H](N)[C@H](O)[C@H](C)O1 [DOXORUBICIN HYDROCHLORIDE]						860	
CC1=CC(=O)[C@H]2/C(C=O)=C\C[C@H]3[C@@H]([C@@H](C)/C=C\C=C/C(=O)OCCOCCOOC(=O)CC45CC6CC(CC(C6)C4)C5)CC[C@]3(C)C[C@H]12	> 10000	> 10000	> 10000				
CC1=CC(=O)[C@H]2/C(C=O)=C\C[C@H]3[C@@H]([C@@H](C)/C=C/C(=O)OC45CC6CC(CC(C6)C4)C5)CC[C@]3(C)C[C@H]12	590	610	950	Active	1.03		
CC1=CC(=O)[C@H]2/C(C=O)=C\C[C@H]3[C@@H]([C@@H](C)/C=C\C=C/C(=O)OCCOCCOCCOCCOC(=O)CC45CC6CC(CC(C6)C4)C5)CC[C@]3(C)C[C@H]12	1260	2030	1010	Active	1.61		
CCCCCOC(=O)/C=C/[C@H](C)[C@H]1CC[C@]2(C)C[C@@H]3C(C)=CC(=O)[C@H]3/C(C=O)=C\C[C@@H]12	2950	1980	2410		0.67		
CC1=CC(=O)[C@H]2/C(C=O)=C\C[C@H]3[C@@H]([C@@H](C)/C=C/C(=O)OCCOCCOCCOCCOC(=O)CC45CC6CC(CC(C6)C4)C5)CC[C@]3(C)C[C@H]12	960	860	930	Active	0.9		
CCCCCCCCCCOC(=O)/C=C\C=C/[C@H](C)[C@H]1CC[C@]2(C)C[C@@H]3C(C)=CC(=O)[C@H]3/C(C=O)=C\C[C@@H]12	1850	1260	910		0.68		
CCCCCCCCCCOC(=O)/C=C/[C@H](C)[C@H]1CC[C@]2(C)C[C@@H]3C(C)=CC(=O)[C@H]3/C(C=O)=C\C[C@@H]12	1660	1030	300		0.62	2160	1.3
CC1=CC(=O)[C@H]2/C(C=O)=C\C[C@H]3[C@@H]([C@@H](C)/C=C\C=C/C(=O)OC45CC6CC(CC(C6)C4)C5)CC[C@]3(C)C[C@H]12	1080	1040	1080	Active	0.96		
CC1=CC(=O)[C@H]2/C(C=O)=C\C[C@H]3[C@@H]([C@@H](C)/C=C\C=C/C(=O)OCCCOC(=O)CC45CC6CC(CC(C6)C4)C5)CC[C@]3(C)C[C@H]12	1450	960	440		0.66		
CC1=CC(=O)[C@H]2/C(C=O)=C\C[C@H]3[C@@H]([C@@H](C)/C=C/C(=O)OCCCOC(=O)CC45CC6CC(CC(C6)C4)C5)CC[C@]3(C)C[C@H]12	1820	700	290		0.38		

Further molecules by falling IC50 (MCF7 [1]), results first:

IC50 (MCF7 [1]) [nM]	IC50 (MCF7 [2]) [nM]	IC50 (MDA-MB-231) [nM]	Activity [4]	SMILES	Ratio IC50 [3]	IC50 at 48 h [5] [nM]	selectivity ratio [6]
4850	3260	2320		COCCOCCOCCOC(=O)/C=C\C=C/[C@H](C)[C@H]1CC[C@]2(C)C[C@@H]3C(C)=CC(=O)[C@H]3/C(C=O)=C\C[C@@H]12	0.67		
2870	1910	750		CC1=CC(=O)[C@H]2/C(C=O)=C\C[C@H]3[C@@H]([C@@H](C)/C=C/C(=O)OCCCCCCCCOC(=O)CC45CC6CC(CC(C6)C4)C5)CC[C@]3(C)C[C@H]12	0.67		
2250	1690	1470		CCCCOC(=O)/C=C/[C@H](C)[C@H]1CC[C@]2(C)C[C@@H]3C(C)=CC(=O)[C@H]3/C(C=O)=C\C[C@@H]12	0.75		
2190	1280	970		CCCCCCCOC(=O)/C=C/[C@H](C)[C@H]1CC[C@]2(C)C[C@@H]3C(C)=CC(=O)[C@H]3/C(C=O)=C\C[C@@H]12	0.58		
1810	730	570		CCCCCCCCCOC(=O)/C=C/[C@H](C)[C@H]1CC[C@]2(C)C[C@@H]3C(C)=CC(=O)[C@H]3/C(C=O)=C\C[C@@H]12	0.4		
1780	980	520		CCCCCCCCOC(=O)/C=C\C=C/[C@H](C)[C@H]1CC[C@]2(C)C[C@@H]3C(C)=CC(=O)[C@H]3/C(C=O)=C\C[C@@H]12	0.55		
1760	1490	690		CC1=CC(=O)[C@H]2/C(C=O)=C\C[C@H]3[C@@H]([C@@H](C)/C=C\C=C/C(=O)OCCCCCCCCOC(=O)CC45CC6CC(CC(C6)C4)C5)CC[C@]3(C)C[C@H]12	0.85		
1450	1860	1370		CCCCOC(=O)/C=C\C=C/[C@H](C)[C@H]1CC[C@]2(C)C[C@@H]3C(C)=CC(=O)[C@H]3/C(C=O)=C\C[C@@H]12	1.28		
1380	940	690	Active	CCCCCCCOC(=O)/C=C\C=C/[C@H](C)[C@H]1CC[C@]2(C)C[C@@H]3C(C)=CC(=O)[C@H]3/C(C=O)=C\C[C@@H]12	0.68		
1040	1110	770		CC1=CC(=O)[C@H]2/C(C=O)=C\C[C@H]3[C@@H]([C@@H](C)/C=C/C(=O)OCCOCCOC(=O)CC45CC6CC(CC(C6)C4)C5)CC[C@]3(C)C[C@H]12	1.07		
